Data as given in ChEMBL document CHEMBL5120882, “Medicinal Chemistry Perspective on Targeting Mono-ADP-Ribosylating PARPs with Small Molecules” (J Med Chem, 2022).

Legend:
[1] = biological target: T1, Poly [ADP-ribose] polymerase tankyrase-1 (Homo sapiens, UniProt O95271); test: Inhibition of N-terminal his-tagged human TNKS1 expressed in Escherichia coli Rosette2 (DE3)
T1 sequence (O95271 whole entry): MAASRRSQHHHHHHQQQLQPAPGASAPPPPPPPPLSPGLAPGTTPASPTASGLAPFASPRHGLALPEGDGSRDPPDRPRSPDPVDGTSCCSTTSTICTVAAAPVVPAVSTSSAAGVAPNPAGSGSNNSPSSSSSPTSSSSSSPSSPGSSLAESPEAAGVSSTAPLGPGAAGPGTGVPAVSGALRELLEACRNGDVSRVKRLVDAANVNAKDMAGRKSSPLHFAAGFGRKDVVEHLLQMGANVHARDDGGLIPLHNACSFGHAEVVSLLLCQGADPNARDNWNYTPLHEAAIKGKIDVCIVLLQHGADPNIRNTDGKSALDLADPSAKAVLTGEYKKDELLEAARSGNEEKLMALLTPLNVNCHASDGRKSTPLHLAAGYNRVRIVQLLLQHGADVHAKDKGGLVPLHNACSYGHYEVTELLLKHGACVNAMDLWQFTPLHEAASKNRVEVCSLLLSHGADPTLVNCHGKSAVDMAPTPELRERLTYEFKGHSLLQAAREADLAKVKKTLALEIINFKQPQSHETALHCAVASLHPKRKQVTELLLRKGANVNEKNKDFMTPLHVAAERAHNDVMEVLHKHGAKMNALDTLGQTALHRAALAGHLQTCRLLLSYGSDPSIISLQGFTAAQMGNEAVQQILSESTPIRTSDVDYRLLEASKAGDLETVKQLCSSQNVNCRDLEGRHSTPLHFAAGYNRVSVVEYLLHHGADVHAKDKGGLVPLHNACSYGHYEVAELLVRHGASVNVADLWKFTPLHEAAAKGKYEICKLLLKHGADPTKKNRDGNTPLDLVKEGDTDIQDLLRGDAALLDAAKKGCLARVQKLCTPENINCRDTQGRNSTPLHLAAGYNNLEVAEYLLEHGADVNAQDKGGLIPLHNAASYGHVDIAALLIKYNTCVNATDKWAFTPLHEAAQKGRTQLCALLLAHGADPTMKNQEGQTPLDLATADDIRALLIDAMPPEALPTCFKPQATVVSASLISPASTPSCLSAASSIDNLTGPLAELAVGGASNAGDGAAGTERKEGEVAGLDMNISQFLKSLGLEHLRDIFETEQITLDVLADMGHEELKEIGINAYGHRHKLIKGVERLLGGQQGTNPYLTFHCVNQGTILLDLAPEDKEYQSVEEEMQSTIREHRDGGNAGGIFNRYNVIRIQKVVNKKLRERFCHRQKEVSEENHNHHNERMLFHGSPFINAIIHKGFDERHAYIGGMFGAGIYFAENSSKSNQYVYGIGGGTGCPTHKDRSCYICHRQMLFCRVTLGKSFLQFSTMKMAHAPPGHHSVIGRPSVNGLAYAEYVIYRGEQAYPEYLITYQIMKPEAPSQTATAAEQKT

[2] = biological target: T2, Protein mono-ADP-ribosyltransferase PARP15 (Homo sapiens, UniProt Q460N3); test: Inhibition of N-terminal his-tagged human PARP15 expressed in Escherichia coli Rosette2 (DE3)
T2 sequence (Q460N3 whole entry): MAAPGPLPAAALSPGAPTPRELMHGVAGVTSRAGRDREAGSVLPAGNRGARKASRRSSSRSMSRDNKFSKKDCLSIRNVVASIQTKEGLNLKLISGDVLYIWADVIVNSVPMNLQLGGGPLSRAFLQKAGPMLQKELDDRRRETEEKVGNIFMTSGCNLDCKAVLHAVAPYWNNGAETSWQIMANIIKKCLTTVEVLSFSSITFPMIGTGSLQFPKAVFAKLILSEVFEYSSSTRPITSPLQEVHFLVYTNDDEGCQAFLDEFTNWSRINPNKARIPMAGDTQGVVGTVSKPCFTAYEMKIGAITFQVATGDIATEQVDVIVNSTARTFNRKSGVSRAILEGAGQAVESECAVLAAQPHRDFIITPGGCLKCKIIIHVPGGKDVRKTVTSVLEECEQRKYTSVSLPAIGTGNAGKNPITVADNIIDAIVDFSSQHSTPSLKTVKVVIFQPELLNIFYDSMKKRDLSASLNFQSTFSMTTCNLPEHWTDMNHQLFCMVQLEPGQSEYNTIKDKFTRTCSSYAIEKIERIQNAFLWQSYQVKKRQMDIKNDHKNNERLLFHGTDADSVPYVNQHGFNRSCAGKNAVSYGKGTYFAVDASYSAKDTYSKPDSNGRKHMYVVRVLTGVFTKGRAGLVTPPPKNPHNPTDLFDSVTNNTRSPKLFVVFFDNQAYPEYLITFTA

[3] = biological target: Poly [ADP-ribose] polymerase 1 (Homo sapiens, UniProt P09874); test: Inhibition of N-terminal his-tagged human PARP1 expressed in Escherichia coli Rosette2 (DE3)
[4] = system: HeLa; test: Cytoprotective activity against human HeLa cells assessed as rescue of PARP10-induced cell death by measuring number of colonies treated for 8 to 10 days followed by compound replenishment for every 3 days by methylene blue staining based assay; type: functional

Poly [ADP-ribose] polymerase 1, sequence (P09874 whole entry): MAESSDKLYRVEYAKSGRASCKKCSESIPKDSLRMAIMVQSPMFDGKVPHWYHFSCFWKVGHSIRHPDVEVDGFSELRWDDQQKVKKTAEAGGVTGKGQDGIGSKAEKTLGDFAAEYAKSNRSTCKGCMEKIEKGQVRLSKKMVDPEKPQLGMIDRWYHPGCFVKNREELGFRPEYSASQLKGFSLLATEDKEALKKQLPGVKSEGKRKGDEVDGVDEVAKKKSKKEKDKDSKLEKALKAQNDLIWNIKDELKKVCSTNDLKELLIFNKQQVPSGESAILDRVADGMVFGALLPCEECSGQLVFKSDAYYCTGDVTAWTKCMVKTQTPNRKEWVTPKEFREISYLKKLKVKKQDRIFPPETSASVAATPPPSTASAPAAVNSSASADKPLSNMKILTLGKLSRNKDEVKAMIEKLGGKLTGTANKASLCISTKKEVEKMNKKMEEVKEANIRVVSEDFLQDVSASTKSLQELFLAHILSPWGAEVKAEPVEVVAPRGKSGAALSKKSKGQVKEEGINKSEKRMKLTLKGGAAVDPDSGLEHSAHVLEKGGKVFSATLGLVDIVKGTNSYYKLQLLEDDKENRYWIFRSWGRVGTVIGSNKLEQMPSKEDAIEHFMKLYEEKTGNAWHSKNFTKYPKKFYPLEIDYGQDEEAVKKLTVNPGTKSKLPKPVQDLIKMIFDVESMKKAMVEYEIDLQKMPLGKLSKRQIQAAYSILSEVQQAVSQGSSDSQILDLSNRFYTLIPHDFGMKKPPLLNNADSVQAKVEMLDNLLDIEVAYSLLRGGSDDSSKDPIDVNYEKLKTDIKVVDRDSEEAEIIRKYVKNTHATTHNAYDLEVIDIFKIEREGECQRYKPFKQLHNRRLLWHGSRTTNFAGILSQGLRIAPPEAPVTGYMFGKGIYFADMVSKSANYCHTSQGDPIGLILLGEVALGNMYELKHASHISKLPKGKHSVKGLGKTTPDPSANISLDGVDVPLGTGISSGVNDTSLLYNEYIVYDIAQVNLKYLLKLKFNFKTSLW

Row | Compound | IC50 [1] | IC50 [2] | IC50 [3] | IC50 [4]
1 | NC(=O)c1ccc(Oc2cccc(C(N)=O)c2)cc1 | 21 µM | 1.7 µM | > 100 µM | 1.8 µM
2 | N#Cc1ccc(Oc2ccc(C(N)=O)cc2)cc1 | > 100 µM | 11 µM | > 100 µM | 1.7 µM
